Reference: publication PMC8587151, “Dibenzofuran Derivatives Inspired from Cercosporamide as Dual Inhibitors of Pim and CLK1 Kinases” (Molecules, 2021)
“And” between values parts separate entries of the source, which are not always exact repeats. Equal values may be shown once. Read-outs that look alike come from different tables or passages of the source.

Assays:
[1] = system: Pim-2; conditions: Figure 1; cited from earlier work
[2] = system: Pim-1; conditions: Figure 1; cited from earlier work
[3] = system: KU812 cells; test: MTT cell proliferation assay; type: cell-based; conditions: Homo sapiens, 48 h, mean ± SEM
Text: (§1) Various types of hematological malignancies were selected for in vitro testing: the human acute myeloid leukemia (AML) cell line MV4-11, and the human chronic myeloid leukemia (CML) cell lines KU812 and K562. Indeed, Pim kinases are overexpressed in a wide range of hematopoietic malignancies. Solid tumors were also included in the panel of tested cell lines: MCF-7 (human breast adenocarcinoma), HT-29 (human colon adenocarcinoma), and HeLa (human cervical cancer) cells. Cytotoxic effects were evaluated using an MTT assay, and living cells were also counted with the trypan blue dye exclusion method for MV4-11, KU812, and K562 cells.
(§2) MV4-11, K562, and KU812 cell lines were obtained from the Deutshe Sammlung von Mikroorganismens und Zellkulturen (DSMZ) and maintained according to the supplier’s recommendations. All cell lines were cultured in RPMI, with 10% fetal bovine serum, 1% glutamine, and 1% penicillin/ streptomycin at 37 °C and 5% CO2.
(§3) MV4-11, K562, and KU812 cells’ viability was studied using a MTT cell proliferation assay.
(§4) MV4-11, K562, and KU812 cells were incubated with 10 μL of MTT working solution (5 g/L of methylthiazolyldiphenyl-tetrazolium bromide from Sigma Aldrich, Lyon, France) for 4 h. Cells were then lysed overnight at 37 °C with 100 μL of 10% SDS and 0.003% HCl. Optical density (OD) at 570 nm was measured using a spectrophotometer CLARIOstar® (BMG Labtech, Offenburg, Germany). Living cells were also counted with the trypan blue dye exclusion method. […] Data were collected from at least three independent experiments and the values reported are means ± standard errors of the mean (SEM).

[4] = system: K562 cells; test: MTT cell proliferation assay; type: cell-based; conditions: Homo sapiens, 48 h, mean ± SEM
Text: as §1, §2, §3, §4

[5] = molecular target: T1, MmCLK1 (Mus musculus, UniProt P22518); test: Kinase assay, luminescent ADP-Glo, 10 µM ATP; type: biochemical; conditions: for IC50: ADP-Glo, 10 µM ATP, duplicate, read-out: Kinase Enzymatic IC50 CLK1
T1 construct: made in house; host or cells: Escherichia coli BL21 DE3 pLysS
Description: (§5) The synthesized compounds were tested using a luminescence-based assay against a panel of nine kinases: Pim-1, Pim-2, CDK5/p25, CDK9/CyclinT, Haspin, CK1ε, and GSK3β (from human); DYRK1A (from Rattus norvegicus); and CLK1 (from Mus musculus).
(§6) Kinase enzymatic activities were assayed with 10 µM ATP in 384-well plates using the luminescent ADP-Glo^TM assay (Promega, Madison, WI, USA) according to the recommendations of the manufacturer (see [56] for details on this method). The transmitted signal was measured using the Envision (PerkinElmer, Waltham, MA, USA) microplate luminometer and expressed in relative light unit (RLU). In order to determine the half maximal inhibitory concentration (IC50), the assays were performed in duplicate in the absence or presence of increasing doses of the tested compounds. GraphPad Prism6 software (GraphPad Software, San Diego, CA, USA) was used to fit dose–response curves and to determine the IC50 values. Kinase activities are expressed in % of maximal activity, i.e., measured in the absence of inhibitor. Peptide substrates were obtained from Proteogenix (Schiltigheim, France).
(§7) For kinases expressed in bacteria, the Escherichia coli BL21 DE3 pLysS strain (Invitrogen, ThermoFisher Scientific, Waltham, MA, USA) was transformed with pGEX-2T-1 (Sigma-Aldrich, St. Louis, MO, USA) containing the coding region of the corresponding kinase. For kinases expressed in Sf9 insect cells, the coding region of the corresponding kinase was cloned in pFastBac^TM vector. Purification of the recombinant kinases was performed following the protocol “Bac-to-Bac® Baculovirus Expression System” provided by the manufacturer (Invitrogen, ThermoFisher Scientific, Waltham, MA, USA).
(§8) To validate the kinase assay, model inhibitors were used for each tested enzyme: Staurosporine from Streptomyces sp. (#S5921, purity ≥ 95%, Sigma-Aldrich) for HsCK1ε; Indirubin-30-oxime (#I0404, purity ≥ 98%, Sigma-Aldrich) for HsGSK-3β, HsPim-1 and 2, human cyclin-dependent kinases, RnDYRK1A and MmCLK1; CHR-6494 (#SML0648, purity ≥ 98%, Sigma-Aldrich) for Haspin.

[6] = molecular target: T2, HsPim-1 (Homo sapiens, UniProt P11309); test: Kinase assay, luminescent ADP-Glo, 10 µM ATP; type: biochemical
T2 construct: made in house; host or cells: Escherichia coli BL21 DE3 pLysS
Description: as §5, §6, §7, §8

[7] = molecular target: T3, HsCDK5/p25 (Homo sapiens, UniProt Q00535); test: Kinase assay, luminescent ADP-Glo, 10 µM ATP; type: biochemical; conditions: duplicate, read-out: Kinase Enzymatic IC50 CDK5/p25
T3 construct: made in house; host or cells: Escherichia coli BL21 DE3 pLysS
Description: as §5, §6, §7, §8

[8] = molecular target: T4, HsCDK9/CyclinT (Homo sapiens, UniProt P50750); test: Kinase assay, luminescent ADP-Glo, 10 µM ATP; type: biochemical; conditions: duplicate, read-out: Kinase Enzymatic IC50 CDK9/CyclinT
T4 construct: made in house; host or cells: Sf9 insect cells (baculovirus, pFastBac)
Description: as §5, §6, §7, §8

[9] = molecular target: T5, HsPim-2 (Homo sapiens, UniProt Q9P1W9); test: Kinase assay, luminescent ADP-Glo, 10 µM ATP; type: biochemical; conditions: mean of n ≥ 3, read-out: IC50 Pim-2
T5 construct: made in house; host or cells: Escherichia coli BL21 DE3 pLysS
Description: as §5, §6, §7, §8

[10] = system: CaPkc1; design: method as in PMID 20865172; conditions: ATP-competitive; cited from earlier work
[11] = system: MCF-7 cells; test: MTT cytotoxicity assay; type: cell-based; conditions: Homo sapiens, MCF7, 72 h
Text: as §1
(§9) The cancer cell lines MCF-7, HT-29, and HeLa were obtained from Cell Bank of Rio de Janeiro, Brazil, and were grown in RPMI-1640 medium and L929 cells were grown in Dulbecco’s Modified Eagle’s Medium (DMEM). Both media were supplemented with fetal bovine serum (FBS) (10% of the final concentration) followed by treatment with penicillin and streptomycin as antibiotics (1% of the final concentration). The crude was incubated in the presence of CO2 atmosphere (5%) for 24 h with the temperature monitored and maintained at 37 °C.
(§10) MCF-7, HT-29, HeLa, and L929 cells (3×10^5 cells/mL) were plated in 96-well plates and incubated in the presence of CO2 atmosphere (5%) for 24 h at 37 °C. […] Then, 25 μL of MTT (5 mg/mL in PBS) were added to each well and the plates were left for another 3 h in the incubator at 37 °C and at the end of this period, the supernatant was aspirated. To perform the reading, 100 μL of dimethylsulfoxide (DMSO) were added in each well for the dissolution of the formazan crystals. The amount of formazan was measured by reading the plate at 560 nm absorbance. […] Each sample was tested in triplicate in two independent experiments.

[12] = system: HeLa cells; test: MTT cytotoxicity assay; type: cell-based; conditions: Homo sapiens, 72 h
Text: as §1, §9, §10

[13] = system: HT-29 cells; test: MTT cytotoxicity assay; type: cell-based; conditions: Homo sapiens, 72 h
Text: as §1, §9, §10

[14] = system: MV4-11 cells; test: MTT cell proliferation assay; type: cell-based, human; conditions: Homo sapiens, MV4-11, 48 h, mean ± SEM
Text: as §1, §2, §3, §4

[15] = molecular target: RnDYRK1A-kd (Rattus norvegicus, UniProt Q63470); test: Kinase assay, luminescent ADP-Glo, 10 µM ATP; type: biochemical; conditions: read-out: IC50 DYRK1A
Description: as §5, §6, §7, §8

[16] = system: L929 cells; test: MTT assay, in vitro toxicity on normal cells; type: cell-based; conditions: 72 h, normal mouse fibroblasts
Text: as §1, §9, §10

[17] = molecular target: T6, HsCK1ε (Homo sapiens, UniProt P49674); test: Kinase assay, luminescent ADP-Glo, 10 µM ATP; type: biochemical; conditions: read-out: IC50 CK1
T6 construct: made in house; host or cells: Sf9 insect cells (baculovirus, pFastBac)
Description: as §5, §6, §7, §8

[18] = Table 1, ADP-Glo, 10 µM ATP, duplicate, read-out: Kinase Enzymatic IC50 Pim-1
[19] = Table 2, ADP-Glo, 10 µM ATP, mean of n ≥ 3, read-out: IC50 Pim-1

T4 sequence (P50750 whole entry): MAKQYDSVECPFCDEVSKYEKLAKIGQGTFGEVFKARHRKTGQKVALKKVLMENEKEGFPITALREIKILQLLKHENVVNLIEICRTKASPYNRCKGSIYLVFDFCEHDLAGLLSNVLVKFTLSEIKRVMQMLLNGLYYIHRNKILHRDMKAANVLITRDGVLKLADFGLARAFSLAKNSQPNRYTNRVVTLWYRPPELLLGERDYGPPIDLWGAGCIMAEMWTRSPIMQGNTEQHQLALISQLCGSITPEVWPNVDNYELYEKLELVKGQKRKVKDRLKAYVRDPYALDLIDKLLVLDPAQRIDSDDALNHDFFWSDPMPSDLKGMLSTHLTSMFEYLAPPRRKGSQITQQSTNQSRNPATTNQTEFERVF
T4 sequence (O60563 whole entry partner): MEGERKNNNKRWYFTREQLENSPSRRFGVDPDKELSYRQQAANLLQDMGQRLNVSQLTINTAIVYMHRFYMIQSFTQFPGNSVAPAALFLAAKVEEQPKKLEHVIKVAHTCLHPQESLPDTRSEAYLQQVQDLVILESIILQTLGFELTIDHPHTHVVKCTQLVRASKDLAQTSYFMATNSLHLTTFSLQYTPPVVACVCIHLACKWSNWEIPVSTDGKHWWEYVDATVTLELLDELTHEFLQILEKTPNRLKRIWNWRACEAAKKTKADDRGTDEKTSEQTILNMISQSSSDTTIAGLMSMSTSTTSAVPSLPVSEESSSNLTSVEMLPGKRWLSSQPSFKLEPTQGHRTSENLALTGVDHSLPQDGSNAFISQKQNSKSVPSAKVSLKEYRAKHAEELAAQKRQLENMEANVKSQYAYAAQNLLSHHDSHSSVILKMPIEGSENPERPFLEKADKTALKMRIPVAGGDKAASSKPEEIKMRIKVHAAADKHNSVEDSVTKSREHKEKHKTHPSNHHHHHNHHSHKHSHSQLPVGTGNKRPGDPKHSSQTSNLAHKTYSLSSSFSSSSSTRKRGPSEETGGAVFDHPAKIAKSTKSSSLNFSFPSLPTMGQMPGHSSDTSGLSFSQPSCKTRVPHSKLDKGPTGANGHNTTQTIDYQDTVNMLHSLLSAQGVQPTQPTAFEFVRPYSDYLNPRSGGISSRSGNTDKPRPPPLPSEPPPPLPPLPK
T2 sequence (P11309 whole entry): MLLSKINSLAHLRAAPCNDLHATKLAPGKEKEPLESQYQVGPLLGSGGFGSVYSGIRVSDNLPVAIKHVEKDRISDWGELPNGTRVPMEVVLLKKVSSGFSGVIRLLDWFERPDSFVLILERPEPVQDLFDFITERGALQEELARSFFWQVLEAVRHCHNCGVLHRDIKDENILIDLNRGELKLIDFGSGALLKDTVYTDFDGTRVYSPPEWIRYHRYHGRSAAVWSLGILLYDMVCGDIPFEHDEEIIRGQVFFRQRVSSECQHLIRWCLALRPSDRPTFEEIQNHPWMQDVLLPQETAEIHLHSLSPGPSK
T5 sequence (Q9P1W9 whole entry): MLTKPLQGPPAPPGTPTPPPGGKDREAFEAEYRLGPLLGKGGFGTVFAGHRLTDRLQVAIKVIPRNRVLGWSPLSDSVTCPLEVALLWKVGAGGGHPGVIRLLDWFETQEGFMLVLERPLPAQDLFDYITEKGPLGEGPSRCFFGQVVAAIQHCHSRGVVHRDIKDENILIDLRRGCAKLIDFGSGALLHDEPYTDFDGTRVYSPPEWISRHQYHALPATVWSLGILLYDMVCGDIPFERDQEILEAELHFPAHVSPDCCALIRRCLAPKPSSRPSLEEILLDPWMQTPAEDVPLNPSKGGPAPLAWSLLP
T1 sequence (P22518 whole entry): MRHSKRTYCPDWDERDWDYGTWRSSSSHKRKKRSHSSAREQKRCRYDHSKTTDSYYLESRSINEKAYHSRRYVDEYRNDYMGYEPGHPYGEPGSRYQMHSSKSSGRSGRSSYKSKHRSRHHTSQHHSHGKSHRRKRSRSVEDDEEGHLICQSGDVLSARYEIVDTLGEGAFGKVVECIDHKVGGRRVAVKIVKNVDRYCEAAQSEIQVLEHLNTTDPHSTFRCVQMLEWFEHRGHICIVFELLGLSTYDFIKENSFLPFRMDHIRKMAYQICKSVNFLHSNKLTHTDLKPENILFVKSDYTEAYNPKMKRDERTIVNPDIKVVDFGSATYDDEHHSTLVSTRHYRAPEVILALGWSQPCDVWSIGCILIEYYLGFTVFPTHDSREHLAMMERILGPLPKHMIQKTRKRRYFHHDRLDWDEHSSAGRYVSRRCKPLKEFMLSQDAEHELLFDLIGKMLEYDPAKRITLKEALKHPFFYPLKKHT
T3 sequence (Q00535 whole entry): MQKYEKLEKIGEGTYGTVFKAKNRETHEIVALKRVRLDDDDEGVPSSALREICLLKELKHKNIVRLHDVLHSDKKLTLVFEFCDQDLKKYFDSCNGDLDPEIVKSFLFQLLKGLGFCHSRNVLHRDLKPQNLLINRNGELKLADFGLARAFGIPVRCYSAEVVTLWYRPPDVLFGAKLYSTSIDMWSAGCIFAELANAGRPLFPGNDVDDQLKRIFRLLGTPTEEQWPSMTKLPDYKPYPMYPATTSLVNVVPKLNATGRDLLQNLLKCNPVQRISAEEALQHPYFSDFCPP
T3 sequence (Q15078 99-307 partner limits assumed): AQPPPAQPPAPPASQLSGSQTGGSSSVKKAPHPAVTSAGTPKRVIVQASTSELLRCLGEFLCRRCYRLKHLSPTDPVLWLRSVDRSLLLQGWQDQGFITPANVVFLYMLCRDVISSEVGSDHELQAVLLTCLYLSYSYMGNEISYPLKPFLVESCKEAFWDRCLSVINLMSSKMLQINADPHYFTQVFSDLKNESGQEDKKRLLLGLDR
T6 sequence (P49674 whole entry): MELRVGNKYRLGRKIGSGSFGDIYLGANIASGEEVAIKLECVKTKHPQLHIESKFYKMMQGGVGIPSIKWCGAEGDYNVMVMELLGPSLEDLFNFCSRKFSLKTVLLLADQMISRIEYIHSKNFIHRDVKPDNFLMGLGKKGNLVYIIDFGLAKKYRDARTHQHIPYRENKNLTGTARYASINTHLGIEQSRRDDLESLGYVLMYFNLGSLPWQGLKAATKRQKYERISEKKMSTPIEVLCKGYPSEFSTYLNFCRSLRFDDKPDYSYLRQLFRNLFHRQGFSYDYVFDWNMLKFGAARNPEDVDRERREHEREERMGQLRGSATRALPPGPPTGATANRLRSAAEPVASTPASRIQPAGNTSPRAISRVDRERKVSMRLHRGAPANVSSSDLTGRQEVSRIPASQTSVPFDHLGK

Row | SMILES | IC50 [4] [nM] | IC50 [5] [nM] | IC50 [6, 18] | IC50 [6, 19] [nM] | IC50 [7] [nM] | IC50 [8] [nM] | IC50 [9] [nM] | IC50 [14] [nM] | IC50 [15] [nM] | melting point [°C] | IC50 [3] [nM] | IC50 [11] [nM] | IC50 [12] [nM] | IC50 [16] [nM] | other results
1 | CC(=O)C1=C(O)C=C2Oc3c(C(C)=O)c(O)c(C)c(O)c3[C@@]2(C)C1=O [(+)-Usnic acid] | – | – | – | – | – | – | – | – | – | – | – | – | – | – | IC50 [1]: 580 nM; IC50 [2]: 210 nM
2 | CC(=O)C1=C(O)C=C2Oc3c(C(N)=O)c(O)cc(O)c3[C@]2(C)C1=O [Cerco, Cercosporamide] | > 100000 | > 10000 | 730 nM | 730 | 5600 | 220 | 1430 | 31500 ± 4700 | – | – | > 100000 | 44300 ± 2100 | 7500 ± 3100 | – | IC50 ([6]; printed in Figure 1, no reference given, read-out: Pim-1 IC50 (Figure 1)): 732 nM; IC50 [10]: 44 nM; IC50 [13]: 10400 nM
3 | COc1cc(OC)c2c(oc3ccc(F)cc32)c1C(N)=O [Compound 41, 8-Fluoro-1,3-dimethoxydibenzo[b,d]furan-4-carboxamide] | – | – | > 10000 nM | – | – | – | – | – | 1330 | 230 to 231 | – | – | – | – | –

The next lines start with results.

Row | IC50 [4] [nM] | IC50 [5] [nM] | IC50 [6, 18] | IC50 [6, 19] [nM] | IC50 [7] [nM] | IC50 [8] [nM] | IC50 [9] [nM] | IC50 [14] [nM] | IC50 [15] [nM] | melting point [°C] | SMILES | IC50 [3] [nM] | IC50 [11] [nM] | IC50 [12] [nM] | IC50 [16] [nM] | other results
4 | 75700 ± 11800 | 26 | 60 nM | 60 | > 10000 | > 10000 | 35 | 2600 ± 400 | – | – | NC(=O)c1c(O)cc(O)c2c1oc1cc(O)ccc12 [Compound 44, 1,3,7-Trihydroxydibenzo[b,d]furan-4-carboxamide] | 42100 ± 1300 | 52500 ± 1200 | 10200 ± 1200 | 28400 ± 1100 | –
5 | > 100000 | 140 | 280 nM | 280 | > 10000 | > 10000 | 120 | 8800 ± 900 | – | – | CC(=O)c1ccc2oc3c(C(N)=O)c(O)cc(O)c3c2c1 [Compound 45, 8-Acetyl-1,3-dihydroxydibenzo[b,d]furan-4-carboxamide] | 69400 ± 12900 | > 100000 | 59600 ± 7600 | > 100000 | fold less active than 44 against CLK1 ([5]; ratio of IC50 values): 5 fold
6 | > 100000 | – | > 1000 nM and 1200 nM | 1200 | – | 920 | – | 16100 ± 1600 | 690 | 342 to 343 | NC(=O)c1c(O)cc(O)c2c1oc1ccc(F)cc12 [Compound 46, 8-Fluoro-1,3-dihydroxydibenzo[b,d]furan-4-carboxamide] | > 100000 | – | – | – | IC50 [17]: 680 nM
